Measurements published in US8518459B2, “Composition for regulating lipid metabolism” (Actigenomics S.A., priority 2009, dated 2013).

Tests used:
[1] = intestinal tract; cited from earlier work
[2] = system: C57B16J mice submitted to diet rich in cholesterol; test: Adiposity index and distribution of white adipose tissue after 12 weeks; type: in vivo, C57bl6J male mice; settings: after 12 weeks of treatment
Procedure: (§1) […] C57bl6J male mice (8 weeks of age) from breeding company Janvier (Le Genest Saint Isle, France) are distributed in cages and housed in a room with controlled humidity and temperature (23±0.5° C.). They are subject to a 12/12-hr light cycle (light at 7 am). During one week of adaptation, the animals have free access to drinking water and food, and are then randomized into 5 groups of 12 animals using as selection criteria weight, triglyceridemia and cholesterolemia.
(§2) • a control group receiving a diet enriched in cholesterol (see composition in Table 1) • a group treated with the reference, atorvastatin, 10 mg/kg/day, • a group receiving a 125 ng/kg/day concentration of Lipistase, • a group receiving PS (a mixture of phytosterols and stanols) to the total dose of 1.2 g/kg/day, • a group receiving a combination of Lipistase and phytosterols.
(§3) All products (reference, study products and combination of products) are administered in the diet enriched in cholesterol, and administration to animals lasts three months. Lipistase, being in the form of a soybean oil suspension, all diets receive the same volume (1.8% w/w) of neutral soybean oil than that required to provide the desired amount of Lipistase.
Animals are sacrificed by cervical dislocation; liver, muscles (gastrocnemius and soleus), heart are quickly dissected, weighed and frozen in liquid nitrogen, then stored at −80° C. The various deposits of fat tissues (subcutaneous, peri-renal, inguinal and mesenteric) are removed and weighed to calculate the adiposity index.

[3] = system: C57B16J mice submitted to diet rich in cholesterol; test: Index of adiponectin secretion by adipose tissue; type: in vivo, C57bl6J male mice; settings: adiponectin concentration (μg/ml)/mass of adipose tissue (g)
Procedure: as §1, §2
as §3, with “Lipistase. […]” for “Lipistase.”

[4] = system: C57B16J mice submitted to diet rich in cholesterol; test: Non-fasting insulinemia after 12 weeks; type: in vivo, C57bl6J male mice; settings: after 12 weeks of treatment
Procedure: as §1, §2
as §3, with “Lipistase. […]” for “Lipistase.”

[5] = system: C57B16J mice submitted to diet rich in cholesterol; test: Non-fasting glycemia after 12 weeks; type: in vivo, C57bl6J male mice; settings: after 12 weeks of treatment
Procedure: as §1
as §2, with “phytosterols. […]” for “phytosterols.”
Euthanasia is performed after 3 months of treatment (12 weeks). A blood test is performed, and the following parameters are measured on an automated Konelab (Thermo Fisher, France): total cholesterol (Thermo Fisher, 981,813), triglycerides (Thermo Fisher, 981,786), glucose (Thermo Fisher, 981,780), ALAT (Thermo Fisher, 981,769), ALP (Thermo Fisher, 981,771), ASAT (Thermo Fisher, 981,771).

[6] = system: C57B16J mice submitted to diet rich in cholesterol; test: Distribution of cholesterol in lipoproteins by FPLC; type: in vivo, C57bl6J male mice; settings: VLDL fraction
Procedure: as §1, §2
All products (reference, study products and combination of products) are administered in the diet enriched in cholesterol, and administration to animals lasts three months. […]
The determination of lipoprotein profiles is carried out by FPLC (Synelvia, France) after two and three months of treatment and the amounts of cholesterol and triglycerides are measured in the different fractions (HDL, LDL and VLDL).

[7] = Body weight and weight gain of mice on cholesterol-enriched diet, 12 weeks of treatment; type: in vivo, C57bl6J male mice; settings: diet rich in cholesterol
Procedure: as §1, §2, §3
The assessment of weight and food intake is carried out once a week. […]

## CC[C@H](CC[C@@H](C)[C@H]1CC[C@H]2[C@@H]3CC=C4C[C@@H](O)CC[C@]4(C)[C@H]3CC[C@]12C)C(C)C [sitosterol]
[1]
  Intestinal absorption: 4-7%

## CC[C@H](CC[C@@H](C)[C@H]1CC[C@H]2[C@@H]3CC[C@H]4C[C@@H](O)CC[C@]4(C)[C@H]3CC[C@]12C)C(C)C [sitostanol]
[1]
  Intestinal absorption: 1%

## CC(C)c1c(C(=O)Nc2ccccc2)c(-c2ccccc2)c(-c2ccc(F)cc2)n1CC[C@@H](O)C[C@@H](O)CC(=O)O [atorvastatin]
[2]
  Adiposity index, effect in words (FIG. 5): reduction of this index
  Epididymal fat, percentage change compared to controls HC (FIG. 6): −46%
  Perirenal (deep) fat, percentage change compared to controls HC (FIG. 6): −48%
  Subcutaneous fat, percentage change compared to controls HC (FIG. 6): −57%
[3]
  Adiponectin secretion index, effect in words (FIG. 9): significantly elevated
[4]
  Insulin levels, percentage change compared to controls HC (FIG. 14): −50%
  Insulinemia, circulating rate (FIG. 14): 2.79 ± 0.33 ng/mL
[5]
  Glycemia / blood sugar, effect in words: at the same level than that of the control animals
[6]
  Free cholesterol in VLDL, percentage change compared to controls HC (FIG. 11b): −35%
[7]
  Body weight compared to control animals (FIG. 1): significantly lower
  Weight gain (FIG. 2): reduction of weight gain

## CC(C)CCC[C@@H](C)[C@H]1CC[C@H]2[C@@H]3CC=C4C[C@@H](O)CC[C@]4(C)[C@H]3CC[C@]12C [cholesterol]
[1]
  Intestinal absorption: 50%
